Reference: ChEMBL document CHEMBL1201862, “PubChem BioAssay data set” (2004)
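Five compound concentrations were applied to cells in 96-well plates for 48 hours; endpoints were derived by simple linear interpolation of the resulting dose-response curve. GI50 is the concentration that inhibits growth by half.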 Calls of active or inactive are those of the source. Cut-off read from the data, not from the text of the source: active = GI50 up to about 1.1 µM and inactive = higher.

Assays:
Assay in all cases: NCI-60 cell line screen, 48 h
BT-549 = tested on: BT-549
HCC 2998 = tested on: HCC 2998
HCT-116 = tested on: HCT-116
HOP-62 = tested on: HOP-62
HOP-92 = tested on: HOP-92
MCF7 = tested on: MCF7
MDA-MB-231 = tested on: MDA-MB-231
MDA-MB-435 = tested on: MDA-MB-435
MDA-N = tested on: MDA-N
NCI-H460 = tested on: NCI-H460
NCI/ADR-RES = tested on: NCI/ADR-RES
OVCAR-4 = tested on: OVCAR-4
OVCAR-8 = tested on: OVCAR-8
RPMI-8226 = tested on: RPMI-8226
SK-MEL-2 = tested on: SK-MEL-2
SK-OV-3 = tested on: SK-OV-3
SR = tested on: SR
T47D = tested on: T47D
UACC-62 = tested on: UACC-62
UACC-257 = tested on: UACC-257

| SMILES | GI50 (BT-549) | GI50 (HCC 2998) | GI50 (HCT-116) | GI50 (HOP-62) | GI50 (HOP-92) | GI50 (MCF7) | GI50 (MDA-MB-231) | GI50 (MDA-MB-435) | GI50 (MDA-N) | GI50 (NCI-H460) | GI50 (NCI/ADR-RES) | GI50 (OVCAR-4) | GI50 (OVCAR-8) | GI50 (RPMI-8226) | GI50 (SK-MEL-2) | GI50 (SK-OV-3) | GI50 (SR) | GI50 (T47D) | GI50 (UACC-62) | GI50 (UACC-257) |
| --- | --- | --- | --- | --- | --- | --- | --- | --- | --- | --- | --- | --- | --- | --- | --- | --- | --- | --- | --- | --- |
| CCOC(=O)c1ccc(NC2Oc3cc4c(cc3C(c3cc(OC)c(OC)c(OC)c3)C2C)OCO4)cc1 (stereo not drawn) | 0.474 µM (active) | 2.13 µM (inactive) | 0.465 µM (active) | 0.789 µM (active) | 0.938 µM (active) | 0.402 µM (active) | 0.516 µM (active) | 0.148 µM (active) | 0.186 µM (active) | 0.445 µM (active) | 0.369 µM (active) | 0.649 µM (active) | 0.935 µM (active) | 0.296 µM (active) | 0.675 µM (active) | 0.483 µM (active) | 0.296 µM (active) | 0.486 µM (active) | 0.46 µM (active) |  |
| C=CCSC1=N/C(=C\c2ccco2)C(=O)N1CC=C | 46.1 µM (inactive) | > 100 µM (inactive) | 52.1 µM (inactive) | > 100 µM (inactive) | 55.2 µM (inactive) | 16.6 µM (inactive) | 98.9 µM (inactive) | 52.5 µM (inactive) | 41.8 µM (inactive) | > 100 µM (inactive) | 85.7 µM (inactive) | 38 µM (inactive) | > 100 µM (inactive) | 28.2 µM (inactive) | > 100 µM (inactive) | > 100 µM (inactive) | 25.4 µM (inactive) | 28.2 µM (inactive) | 39.4 µM (inactive) | 77.6 µM (inactive) |
| CCOS(=O)(=O)c1ccc(-c2c3nc(c(-c4ccc(S(=O)(=O)OCC)cc4)c4ccc([nH]4)c(-c4ccc(S(=O)(=O)OCC)cc4)c4nc(c(-c5ccc(S(=O)(=O)OCC)cc5)c5ccc2[nH]5)C=C4)C=C3)cc1 | > 31.6 µM (inactive) | > 31.6 µM (inactive) | > 31.6 µM (inactive) | > 10 µM (inactive) | > 100 µM (inactive) | > 31.6 µM (inactive) | > 31.6 µM (inactive) | > 31.6 µM (inactive) | > 31.6 µM (inactive) | > 31.6 µM (inactive) | > 31.6 µM (inactive) | > 31.6 µM (inactive) | > 31.6 µM (inactive) | > 31.6 µM (inactive) | > 31.6 µM (inactive) | > 31.6 µM (inactive) | > 31.6 µM (inactive) | > 31.6 µM (inactive) | > 31.6 µM (inactive) | > 31.6 µM (inactive) |
| COc1cc(/C=C/C(=O)OC[C@]23O[C@H]2[C@@H](OC2OC(C)C(O)C(O)C2O)C2C=CO[C@@H](OC4OC(CO)C(O)C(O)C4O)C23)ccc1O (stereo partly drawn) | > 100 µM (inactive) | > 100 µM (inactive) | > 100 µM (inactive) | > 100 µM (inactive) | > 100 µM (inactive) | > 100 µM (inactive) | > 100 µM (inactive) | > 100 µM (inactive) | > 100 µM (inactive) | > 100 µM (inactive) | > 100 µM (inactive) | > 100 µM (inactive) | > 100 µM (inactive) | > 100 µM (inactive) | > 100 µM (inactive) | > 100 µM (inactive) | > 100 µM (inactive) | > 100 µM (inactive) | > 100 µM (inactive) |  |
| CNC(=O)N(CCC#N)CCN(C(=O)N(C)C)c1ccccc1 | > 100 µM (inactive) | > 100 µM (inactive) | > 100 µM (inactive) | > 100 µM (inactive) | > 100 µM (inactive) | > 100 µM (inactive) | > 100 µM (inactive) | > 100 µM (inactive) | > 100 µM (inactive) | > 100 µM (inactive) | > 100 µM (inactive) | > 100 µM (inactive) | > 100 µM (inactive) | > 100 µM (inactive) | > 100 µM (inactive) | > 100 µM (inactive) | > 100 µM (inactive) | > 100 µM (inactive) | > 100 µM (inactive) | > 100 µM (inactive) |
